What was measured:
Format in all cases: biochemical
PKR wt = PKR wt (Homo sapiens, UniProt P30613); experiment: PKR WT Single Point Percent Activation Assay
Method in brief: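 Single concentration of 1 μM compound preincubated 60 min at RT with PKR wt (100 ng/well) in Tris pH 7.5, KCl, MgCl2, DTT, BSA. Reaction started with ADP (0.48 mM final) with PEP 0.15 mM, coupled LDH/NADH (180 μM), read at OD340, room temperature; given as percent activation.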

PKR R510Q [1] = target: T1, PKR R510Q (Homo sapiens, UniProt P30613, R510Q); experiment: PKR Mutant Assay (AC50), PKR R510Q
T1 sequence (P30613 whole entry R510Q): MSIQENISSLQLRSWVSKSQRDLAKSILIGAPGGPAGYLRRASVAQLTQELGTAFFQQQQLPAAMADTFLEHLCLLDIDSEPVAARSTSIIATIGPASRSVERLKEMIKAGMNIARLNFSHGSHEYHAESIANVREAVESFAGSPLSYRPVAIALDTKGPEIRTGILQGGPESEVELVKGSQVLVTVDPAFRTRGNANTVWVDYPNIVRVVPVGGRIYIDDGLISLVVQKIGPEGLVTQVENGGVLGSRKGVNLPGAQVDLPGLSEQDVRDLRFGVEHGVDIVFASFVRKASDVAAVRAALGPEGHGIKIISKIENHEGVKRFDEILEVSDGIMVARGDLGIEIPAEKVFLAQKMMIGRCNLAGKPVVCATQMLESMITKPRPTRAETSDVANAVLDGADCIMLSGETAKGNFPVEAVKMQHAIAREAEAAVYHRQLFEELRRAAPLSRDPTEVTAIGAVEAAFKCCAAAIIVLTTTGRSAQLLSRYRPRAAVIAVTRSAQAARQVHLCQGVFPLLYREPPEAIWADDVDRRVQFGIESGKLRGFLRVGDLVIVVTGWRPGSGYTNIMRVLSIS
Description: (§1) • PKR or PKR mutant enzyme solution was diluted in assay buffer. • 2 μL of test compound was added into wells first, and then 180 μL reaction mix was added. • Reactions mixture with test compound was assembled except for ADP, and plates were stored for 60 minutes at room temperature. • 20 uL ADP was added to start reaction at room temperature and reaction progress was measured as changes in absorbance at 340 nm wavelength at room temperature.
(§2) Test Compound Preparation: • Test compound stock was made at 100× concentration in 100% DMSO (10 mM) • 1 to 3 dilutions were made for 11 points (i.e. 50 μl of first concentration added to 100 μl 100% DMSO to yield 3.33 mM, 50 μl of this added to 100 μl DMSO to yield 1.11 mM, and so forth) • 1 to 100 dilution into assay (2 μl in 200 μl) yielded starting concentration of 100 μM, decreasing 3 fold for 11 points. Assay Buffer: 100 mM KCl, 50 mM Tris 7.5, 5 mM MgCl2, 1 mM DTT, 0.03% BSA Reaction Mixture: PKR mutant enzyme: 80-400 ng/well; ADP: 0.22-1.65 mM; PEP: 0.1-0.5 mM; NADH: 180 uM; LDH: 0.5 units (Sigma#59023); DTT: 1 mM; BSA: 0.03%.

PKR R532W [2] = target: T2, PKR R532W (Homo sapiens, UniProt P30613, R532W); experiment: PKR R532W Single Point Percent Activation Assay; settings: for activation at 1 µM: read-out: Act, % 532W
T2 sequence (P30613 whole entry R532W): as the sequence (P30613 whole entry R510Q) above, with Q510R, R532W counted along it
Method in brief: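 PKR R532W (100 ng/well) preincubated 60 min at RT with compound at 1 μM in Tris pH 7.5, KCl, MgCl2, DTT, BSA. Reaction started with ADP (0.36 mM), with PEP 0.1 mM, NADH 180 μM and LDH coupling; read at OD340, room temperature.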

PKR R532W [3] = target: T2, PKR R532W; experiment: PKR Mutant Assay (AC50), PKR R532W
Description: as §1, §2

PKR R510Q [4] = target: T1, PKR R510Q; experiment: PKR R510Q Single Point Percent Activation Assay; settings: for activation at 1 µM: read-out: Act. % 510Q
Method in brief: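 Test compound was used at a single concentration of 1 μM and preincubated 60 min at room temperature with PKR R510Q (40 ng/well). The buffer was 50 mM Tris pH 7.5, 100 mM KCl, 5 mM MgCl2, 1 mM DTT and 0.03% BSA. The reaction was started with 0.2 mM ADP and read as OD340 in an LDH-coupled system (0.11 mM PEP, 180 μM NADH).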

PKR T384W [5] = target: PKR T384W (Homo sapiens, UniProt P30613, T384W); experiment: PKR T384W Single Point Percent Activation Assay; settings: for activation at 1 µM: read-out: Act. % 384W
Sequence of PKR T384W (Homo sapiens, UniProt P30613, T384W) (P30613 whole entry T384W): as the sequence (P30613 whole entry R510Q) above, with T384W, Q510R counted along it
Method in brief: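 Soluble PKR T384W (300 ng/well) preincubated 60 min at RT with 1 μM compound in 50 mM Tris pH 7.5, 100 mM KCl, 5 mM MgCl2, 1 mM DTT, 0.03% BSA. Started with ADP (0.08 mM); PEP 0.23 mM, LDH-coupled NADH (180 μM) consumption read at OD340, room temperature.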

wild type PKR = wild type PKR (Homo sapiens, UniProt P30613); experiment: PKR Mutant Assay (AC50), wild type PKR; settings: read-out: PKR WT AC50
Sequence of wild type PKR (P30613 whole entry): as the sequence (P30613 whole entry R510Q) above, with Q510R counted along it
Description: as §1, §2

PKR G364D = PKR G364D (Homo sapiens, UniProt P30613, G364D); experiment: PKR Mutant Assay (AC50), PKR G364D
Sequence of PKR G364D (P30613 whole entry G364D): as the sequence (P30613 whole entry R510Q) above, with G364D, Q510R counted along it
Description: as §1, §2

PKR T384W [6] = target: PKR T384W (Homo sapiens, UniProt P30613); experiment: PKR Mutant Assay (AC50), PKR T384W
Sequence of PKR T384W (Homo sapiens, UniProt P30613) (P30613 whole entry T384M): as the sequence (P30613 whole entry R510Q) above, with T384M, Q510R counted along it
Description: as §1, §2

PKR R479H = PKR R479H (Homo sapiens, UniProt P30613, R479H); experiment: PKR Mutant Assay (AC50), PKR R479H
Sequence of PKR R479H (P30613 whole entry R479H): as the sequence (P30613 whole entry R510Q) above, with R479H, Q510R counted along it
Description: as §1, §2

Sequence of PKR wt (P30613 whole entry): as the sequence (P30613 whole entry R510Q) above, with Q510R counted along it

Row | activation at 1 µM (PKR wt) | AC50 (PKR R510Q [1]) | activation at 1 µM (PKR R532W [2]) | AC50 (PKR R532W [3]) | activation at 1 µM (PKR R510Q [4]) | activation at 1 µM (PKR T384W [5]) | AC50 (wild type PKR) | AC50 (PKR G364D) | AC50 (PKR T384W [6]) | AC50 (PKR R479H) | Compound | Act. % WT (PKR wt; % activation at 1 μM) | Act, % 532W (PKR R532W [2]; % activation at 1 μM) | Act. % 510Q (PKR R510Q [4]; % activation at 1 μM) | Act. % 384W (PKR T384W [5]; % activation at 1 μM)
1 | 101 to 500% | > 0.5 µM | 101 to 500% | < 0.1 µM | 101 to 500% | 101 to 500% | < 0.1 µM |  |  |  | CC(C)OC(=O)N1CCN(C(=O)c2ccc(NS(=O)(=O)c3cccc4cccnc34)cc2)[C@H](C)C1 |  |  |  | 
2 | 101 to 500% | > 0.5 µM | 101 to 500% | < 0.1 µM | 101 to 500% | 101 to 500% | < 0.1 µM | 0.101 to 0.5 µM | < 0.1 µM | < 0.1 µM | COc1ccccc1N1CCN(C(=O)c2ccc(NS(=O)(=O)c3cccc4cccnc34)cc2)C(C)C1 (centres unmarked) |  |  |  | 
3 | 101 to 500% |  | 101 to 500% | > 0.5 µM | 101 to 500% | 101 to 500% | < 0.1 µM |  |  |  | CC(C)OC(=O)N1[C@H](C)CN(C(=O)c2ccc(NS(=O)(=O)c3cccc4cccnc34)cc2)C[C@@H]1C |  |  |  | 
4 | 101 to 500% | < 0.1 µM | 101 to 500% |  | 101 to 500% | 101 to 500% |  |  |  |  | CC1CN(Cc2ccccc2)CC(C)N1C(=O)c1ccc(NS(=O)(=O)c2cccc3cccnc23)cc1 (centres unmarked) |  |  |  | 
5 | 101 to 500% | 0.101 to 0.5 µM | 1 to 100% | < 0.1 µM | 101 to 500% | 101 to 500% | < 0.1 µM |  | < 0.1 µM | < 0.1 µM | O=C(c1ccc(NS(=O)(=O)c2cccc3cccnc23)cc1)N1CCN(C[C@H]2CCOC2)CC1 |  |  |  | 
6 | 101 to 500% |  | 101 to 500% |  | 1 to 100% | 101 to 500% |  |  |  |  | C[C@@H]1CN(Cc2ccc(F)cc2)CCN1C(=O)c1ccc(NS(=O)(=O)c2cccc3cccnc23)cc1 |  |  |  | 
7 | 1 to 100% |  | 101 to 500% |  | 1 to 100% | 1 to 100% |  |  |  |  | C[C@H]1CN(Cc2ccc(F)cc2)CCN1C(=O)c1ccc(NS(=O)(=O)c2cccc3cccnc23)cc1Cl |  |  |  | 
8 | 1 to 100% |  | 1 to 100% |  | 1 to 100% | 1 to 100% |  |  |  |  | O=C(c1ccc(NS(=O)(=O)c2cccc3cccnc23)cc1)N1CCN(Cc2ccc(F)cc2)c2ccccc21 |  |  |  | 
9 | 101 to 500% |  | 1 to 100% |  | 101 to 500% | 101 to 500% |  |  |  |  | C[C@@H]1CN(CC2CC2)CCN1C(=O)c1ccc(NS(=O)(=O)c2cccc3cccnc23)cc1 |  |  |  | 
10 | 101 to 500% |  | 101 to 500% |  | 1 to 100% | 101 to 500% |  |  |  |  | C[C@H]1CN(C(=O)OCC2CC2)CCN1C(=O)c1ccc(NS(=O)(=O)c2cccc3cccnc23)cc1 |  |  |  | 
11 |  |  |  |  |  |  |  |  |  |  | C[C@H]1CN(Cc2ccc(F)c(F)c2F)CCN1C(=O)c1ccc(NS(=O)(=O)c2cccc3cccnc23)cc1 [drawing 87] | A (a % activation at 1 μM of from 1 to 100) | B (a % activation at 1 μM of from 101 to 500) | A (a % activation at 1 μM of from 1 to 100) | A (a % activation at 1 μM of from 1 to 100)
12 | 1 to 100% |  | 1 to 100% |  | 1 to 100% | 1 to 100% |  |  |  |  | O=C(c1ccc(NS(=O)(=O)c2cccc3cccnc23)cc1)N1CCN(Cc2ccc(F)cc2)C[C@@H]1c1ccccc1 |  |  |  | 
13 | 1 to 100% |  | 101 to 500% |  | 1 to 100% | 101 to 500% |  |  |  |  | CC(c1c(F)ccc(F)c1F)N1CCN(C(=O)c2ccc(NS(=O)(=O)c3cccc4cccnc34)cc2)[C@@H](C)C1 (some centres unmarked) |  |  |  | 
14 | 101 to 500% |  | 101 to 500% |  | 101 to 500% | 101 to 500% |  |  |  |  | CC1CN(Cc2cc(F)cc(F)c2F)CC(C)N1C(=O)c1ccc(NS(=O)(=O)c2cccc3cccnc23)cc1 (centres unmarked) |  |  |  | 
15 | 1 to 100% | 0.101 to 0.5 µM | 1 to 100% | < 0.1 µM | 101 to 500% | 101 to 500% | < 0.1 µM |  | < 0.1 µM | < 0.1 µM | O=C(c1ccc(NS(=O)(=O)c2cccc3cccnc23)cc1)N1CCN(C[C@@H]2CCOC2)CC1 |  |  |  | 
16 | 1 to 100% |  | 1 to 100% |  | 101 to 500% | 1 to 100% |  |  |  |  | CC(c1c(F)cccc1F)N1CCN(C(=O)c2ccc(NS(=O)(=O)c3cccc4cccnc34)cc2)[C@H](C)C1 (some centres unmarked) |  |  |  | 
17 | 101 to 500% |  | 101 to 500% |  | 101 to 500% | 101 to 500% |  |  |  |  | C[C@@H]1CN(C(=O)c2ccc(NS(=O)(=O)c3cccc4cccnc34)cc2)C[C@H](C)N1C(=O)c1ccccn1 |  |  |  | 
18 | 1 to 100% |  | 1 to 100% |  | 101 to 500% | 1 to 100% |  |  |  |  | CC1CN(CC2CCOC2)CC(C)N1C(=O)c1ccc(NS(=O)(=O)c2cccc3cccnc23)cc1 (centres unmarked) |  |  |  | 
19 | 101 to 500% |  | 101 to 500% |  | 1 to 100% | 101 to 500% |  |  |  |  | CC(c1cc(F)c(F)cc1F)N1CCN(C(=O)c2ccc(NS(=O)(=O)c3cccc4cccnc34)cc2)[C@@H](C)C1 (some centres unmarked) |  |  |  | 
20 | 101 to 500% |  | 101 to 500% | > 0.5 µM | 1 to 100% | 101 to 500% | > 0.5 µM |  |  |  | CCOC(=O)N1CCN(C(=O)c2ccc(NS(=O)(=O)c3cccc4cccnc34)cc2)[C@@H](C)C1 |  |  |  | 
21 | 1 to 100% |  | 1 to 100% |  | 1 to 100% | 1 to 100% |  |  |  |  | C[C@@H]1CN(Cc2cc(F)c(F)cc2F)CCN1C(=O)c1ccc(NS(=O)(=O)c2cccc3cccnc23)cc1 |  |  |  | 
22 | 1 to 100% |  | 1 to 100% |  | 101 to 500% | 101 to 500% |  |  |  |  | CC(c1ccc(Cl)c(F)c1)N1CCN(C(=O)c2ccc(NS(=O)(=O)c3cccc4cccnc34)cc2)[C@H](C)C1 (some centres unmarked) |  |  |  | 
23 | 1 to 100% |  | 1 to 100% |  | 1 to 100% | 1 to 100% |  |  |  |  | C[C@@H]1CN(C(=O)OC2CCOCC2)CCN1C(=O)c1ccc(NS(=O)(=O)c2cccc3cccnc23)cc1 |  |  |  | 
24 | 101 to 500% |  | 101 to 500% |  | 101 to 500% | 101 to 500% |  |  |  |  | CC(c1cc(F)cc(F)c1)N1CCN(C(=O)c2ccc(NS(=O)(=O)c3cccc4cccnc34)cc2)[C@H](C)C1 (some centres unmarked) |  |  |  | 
25 | 1 to 100% |  | 101 to 500% |  | 1 to 100% | 1 to 100% |  |  |  |  | CC1CN(Cc2cc(F)c(F)c(F)c2)CC(C)N1C(=O)c1ccc(NS(=O)(=O)c2cccc3cccnc23)cc1 (centres unmarked) |  |  |  | 
26 | 101 to 500% |  | 101 to 500% |  | 1 to 100% | 101 to 500% |  |  |  |  | CC(c1ccc(F)cc1F)N1CCN(C(=O)c2ccc(NS(=O)(=O)c3cccc4cccnc34)cc2)[C@@H](C)C1 (some centres unmarked) |  |  |  | 
